Results published in patent US20230346961A1, “GLP-1 AND GIP RECEPTOR CO-AGONISTS” (Novo Nordisk A/S, priority 2020, published 2023).
Starred links: 1 amine or outer side, 2 acyl side, 3 side chain; linkers in the order of their positions; H or OH if unused. Non-standard residues stand in square brackets, D forms with d. Residues, ends and D or L forms follow the SMILES beside them. Groups on a side chain read outwards from the residue. No end group written: not given here. *: point of attachment. C18 diacid = O=C(O)CCCCCCCCCCCCCCCCC(=O)*; γGlu = O=C(O)[C@H](CCC(=O)[*:2])N[*:1]; εLys = N[C@@H](CCCCN[*:1])C(=O)[*:2]; Aib = CC(C)(N)C(=O)O

Legend:
[1] = system: diet-induced obese (DIO) mice; assay: Pharmacodynamic study in DIO mice: body weight and food intake; format: in vivo, C57BL/6J male mice
Experimental: The purpose of this example is to assess the in vivo effect of select compounds on pharmacodynamic parameters in diet-induced obese (DIO) mice. The animals were treated once daily via subcutaneous injection with a liquid formulation of the test compound to assess effects on body weight, foot intake, and glucose tolerance. For comparison, the known GLP-1R/GIPR co-agonist tirzepatide and a surrogate of the GLP-1R agonist semaglutide were used as references. The semaglutide surrogate has the same pharmacological properties of semaglutide but a slightly modified structure in which the γGlu element of the substituent has been changed from the L-isomer to the D-isomer.
C57BL/6J male mice were purchased from Jackson Laboratories at approximately 8 weeks of age. Mice were group housed and fed a high-fat, high-sugar diet from Research Diets (D12331). Mice were maintained on this diet for 12 weeks prior to initializing the pharmacology studies. Mice exceeding a measured body weight of 50 grams were considered diet-induced obese (DIO) and included in pharmacology studies. Mice were exposed to a controlled 12 h:12 h light:dark cycle at ambient room temperature (22° C.) with ab libitum access to food and water. Studies were approved by and performed according to the guidelines of the Institutional Animal Care and Use Committee of the University of Cincinnati.
Animals were dosed once daily, subcutaneously with either vehicle or test compound. All injections occurred during the middle of the light phase at a fixed volume of 2-5 microliters per gram body weight.
All compounds in the study were formulated in the following buffer: 50 mM phosphate; 70 mM sodium chloride; 0.05% Tween-80, pH 7.4. Dosing solutions were formulated in glass vials and stored at 2-8° C. Dosing solutions were brought to room temperature before dosing and returned to 2-8° C. after dosing.
DIO mice were distributed into groups (n=8 per group) such that statistical variations in the mean and standard deviations of fat mass and body weight were minimized between groups. The animals were grouped to receive treatment as follows: Vehicle, tirzepatide, semaglutide surrogate or a GLP-1/GIP receptor co-agonists as described herein, where vehicle is 50 mM phosphate, 70 mM sodium chloride; 0.05% Tween-80, pH 7.4. The test compounds were dissolved in the vehicle, to stock concentrations of 100 μM, then diluted 50-200 fold in the vehicle to achieve the desired dosing solution concentrations. Animals were dosed subcutaneously once daily in the morning for each day of treatment with dosing solution at a volume of 2-5 μL per gram of body weight as necessary to achieve the desired dose (eg 0.3 nmol/kg, 1.0 nmol/kg, or 3.0 nmol/kg).
Body weight (BW) and food intake were measured immediately prior to dosing each day. The percent change in body was calculated individually for each mouse based on initial body weight prior to the first injection.

[2] = system: diet-induced obese (DIO) mice; assay: Pharmacodynamic study in DIO mice: IPGTT (intraperitoneal glucose tolerance test); format: in vivo, C57BL/6J male mice; conditions: 30 days, glucose 2 g/kg i.p., mean ± SEM
Experimental: On the day of the glucose tolerance test, animals were fasted for 4 h. Food was removed and animals were transferred to fresh cages. Animals had access to water but not to food. Tail blood glucose levels were measured, and mice were injected (t=0) with an intra-peritoneal (i.p.) glucose load of 2 g/kg (200 mg/ml glucose solution, dose volume 10 ml/kg). Tail blood glucose levels were measured at times 0, 15, 30, 60, 90, 120 minutes following the i.p. glucose load. Stratification of the animals during the IPGTT was such that for example two mice from group 1 are dosed followed by two mice from group 2, 3, 4, before the next two mice from group 1, 2, 3 etc. were handled. This was to allow for equal distribution of “time of day” throughout all groups.

human glucagon receptor = human glucagon receptor (Homo sapiens, UniProt P47871); assay: cell-based
mouse GLP-1 receptor = target: T1, mouse GLP-1 receptor (Mus musculus, UniProt O35659)
T1 sequence (O35659 22-463): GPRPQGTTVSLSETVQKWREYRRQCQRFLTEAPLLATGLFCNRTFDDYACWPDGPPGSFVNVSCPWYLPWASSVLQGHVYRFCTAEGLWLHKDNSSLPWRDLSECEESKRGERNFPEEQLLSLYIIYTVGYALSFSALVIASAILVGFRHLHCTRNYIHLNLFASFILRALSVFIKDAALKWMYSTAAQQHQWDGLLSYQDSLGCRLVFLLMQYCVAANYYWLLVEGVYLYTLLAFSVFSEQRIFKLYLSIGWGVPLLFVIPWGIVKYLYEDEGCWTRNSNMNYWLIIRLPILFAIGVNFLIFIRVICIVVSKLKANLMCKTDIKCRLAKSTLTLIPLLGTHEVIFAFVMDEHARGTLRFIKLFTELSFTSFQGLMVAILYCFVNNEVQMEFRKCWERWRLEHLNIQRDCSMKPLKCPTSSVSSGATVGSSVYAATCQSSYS

[3] = target: human glucagon-like peptide 1 receptor (human, UniProt P43220 24-463); assay: cell-based or functional assay
[4] = target: T2, human glucose-dependent insulinotropic polypeptide receptor (human, UniProt P48546 22-466); assay: cell-based or functional assay
T2 sequence (looked up): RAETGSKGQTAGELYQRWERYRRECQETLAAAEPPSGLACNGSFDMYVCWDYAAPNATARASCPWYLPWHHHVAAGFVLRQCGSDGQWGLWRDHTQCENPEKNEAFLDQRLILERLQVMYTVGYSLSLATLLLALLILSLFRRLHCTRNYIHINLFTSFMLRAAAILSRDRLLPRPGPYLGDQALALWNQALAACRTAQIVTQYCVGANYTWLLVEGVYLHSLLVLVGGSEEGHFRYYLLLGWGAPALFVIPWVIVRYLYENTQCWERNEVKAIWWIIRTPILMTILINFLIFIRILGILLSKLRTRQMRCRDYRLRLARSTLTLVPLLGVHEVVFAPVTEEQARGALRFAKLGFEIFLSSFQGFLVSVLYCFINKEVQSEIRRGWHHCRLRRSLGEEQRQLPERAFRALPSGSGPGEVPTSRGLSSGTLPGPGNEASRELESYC

[5] = target: T3, mouse glucagon-like peptide 1 receptor (mouse, UniProt O35659 22-463); assay: cell-based or functional assay
T3 sequence (looked up): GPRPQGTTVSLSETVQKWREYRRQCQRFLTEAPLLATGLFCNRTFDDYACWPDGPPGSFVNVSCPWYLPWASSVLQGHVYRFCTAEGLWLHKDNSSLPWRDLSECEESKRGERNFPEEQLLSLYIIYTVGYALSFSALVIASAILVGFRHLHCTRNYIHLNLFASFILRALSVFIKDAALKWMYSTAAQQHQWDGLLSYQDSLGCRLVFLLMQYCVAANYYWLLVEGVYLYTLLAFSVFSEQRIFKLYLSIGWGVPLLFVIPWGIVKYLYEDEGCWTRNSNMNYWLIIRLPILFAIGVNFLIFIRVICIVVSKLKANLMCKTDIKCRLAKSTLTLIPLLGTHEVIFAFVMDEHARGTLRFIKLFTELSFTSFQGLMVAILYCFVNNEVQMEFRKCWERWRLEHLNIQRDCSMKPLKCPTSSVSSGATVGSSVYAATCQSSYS

[6] = target: T4, mouse glucose-dependent insulinotropic polypeptide receptor (mouse, UniProt Q0P543 19-460); assay: cell-based or functional assay
T4 sequence (looked up): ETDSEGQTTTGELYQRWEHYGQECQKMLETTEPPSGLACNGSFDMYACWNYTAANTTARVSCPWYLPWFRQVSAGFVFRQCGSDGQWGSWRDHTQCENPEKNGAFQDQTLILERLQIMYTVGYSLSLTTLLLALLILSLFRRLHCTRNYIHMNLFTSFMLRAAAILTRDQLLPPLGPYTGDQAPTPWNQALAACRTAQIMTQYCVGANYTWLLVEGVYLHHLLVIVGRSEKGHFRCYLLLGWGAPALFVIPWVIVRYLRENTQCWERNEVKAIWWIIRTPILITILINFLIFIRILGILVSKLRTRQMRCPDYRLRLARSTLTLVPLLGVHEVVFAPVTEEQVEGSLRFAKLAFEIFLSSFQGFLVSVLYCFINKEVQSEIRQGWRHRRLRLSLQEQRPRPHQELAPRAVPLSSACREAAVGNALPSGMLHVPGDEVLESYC

[7] = DIO mice, 0.3 nmol/kg s.c. once daily, 30 days, mean ± SEM
[8] = DIO mice, 1.0 nmol/kg s.c. once daily, 30 days, mean ± SEM
[9] = DIO mice, 3.0 nmol/kg s.c. once daily, 10 days, mean ± SEM, n = 8
[10] = DIO mice, 3.0 nmol/kg s.c. once daily, 30 days, mean ± SEM

human glucagon receptor, sequence (P47871 26-477): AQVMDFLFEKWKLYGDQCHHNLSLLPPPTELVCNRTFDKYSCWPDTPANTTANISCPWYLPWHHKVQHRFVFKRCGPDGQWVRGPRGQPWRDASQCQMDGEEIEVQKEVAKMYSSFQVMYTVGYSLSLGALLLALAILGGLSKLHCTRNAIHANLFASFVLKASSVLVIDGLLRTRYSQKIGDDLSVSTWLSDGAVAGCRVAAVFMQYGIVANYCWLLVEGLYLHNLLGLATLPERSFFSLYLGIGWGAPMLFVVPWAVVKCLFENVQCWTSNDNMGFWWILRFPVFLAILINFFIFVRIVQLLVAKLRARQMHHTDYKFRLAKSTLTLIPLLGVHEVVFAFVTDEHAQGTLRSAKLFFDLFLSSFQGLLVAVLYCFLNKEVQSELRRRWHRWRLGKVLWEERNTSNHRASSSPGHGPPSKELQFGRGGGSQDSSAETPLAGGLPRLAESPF

## CC[C@H](C)[C@H](NC(=O)[C@H](CO)NC(=O)[C@H](Cc1ccc(O)cc1)NC(=O)[C@H](CC(=O)O)NC(=O)[C@H](CO)NC(=O)[C@@H](NC(=O)[C@H](Cc1ccccc1)NC(=O)[C@@H](NC(=O)CNC(=O)[C@H](CCC(=O)O)NC(=O)C(C)(C)NC(=O)[C@@H](N)Cc1ccc(O)cc1)[C@@H](C)O)[C@@H](C)O)C(=O)N[C@@H](Cc1ccc(O)cc1)C(=O)N[C@@H](CC(C)C)C(=O)N[C@@H](CC(=O)O)C(=O)N[C@@H](CCCCN)C(=O)N[C@@H](CCC(N)=O)C(=O)N[C@@H](C)C(=O)N[C@@H](C)C(=O)NC(C)(C)C(=O)N[C@@H](CCCCNC(=O)[C@@H](N)CCCCNC(=O)[C@@H](N)CCCCNC(=O)CC[C@H](NC(=O)CCCCCCCCCCCCCCCCC(=O)O)C(=O)O)C(=O)N[C@@H](Cc1ccccc1)C(=O)N[C@H](C(=O)N[C@@H](CC(N)=O)C(=O)N[C@@H](Cc1c[nH]c2ccccc12)C(=O)N[C@@H](CC(C)C)C(=O)N[C@@H](CC(C)C)C(=O)N[C@@H](C)C(=O)NCC(=O)NCC(=O)N1CCC[C@H]1C(=O)N[C@@H](CO)C(=O)N[C@@H](CO)C(=O)NCC(=O)N[C@@H](C)C(=O)N1CCC[C@H]1C(=O)N1CCC[C@H]1C(=O)N1CCC[C@H]1C(=O)N[C@@H](CO)C(N)=O)C(C)C [Compound 9] (H-Y[Aib]EGTFTSDYSIYLDKQAA[Aib]K([εLys-εLys-γGlu-C18 diacid])FVNWLLAGGPSSGAPPPS-NH2; N-terminus assumed)
[1]; DIO mice, 0.3 nmol/kg group, baseline Day 0 (30-day study), mean ± SEM
  Absolute BW Day 0: 66.5 ± 2.6 grams
[1]; [7]
  Absolute BW Day 31: 66.9 ± 3.2 grams
  Change in BW Day 31: 3.4 ± 1.7%
[1]; DIO mice, 0.3 nmol/kg s.c. once daily, 30 days, mean ± SEM, n = 2
  Cumulative food intake Day 31: 87.4 ± 5.9 grams
[1]; DIO mice, 1.0 nmol/kg and 3.0 nmol/kg doses, 30 days
  Performance compared with semaglutide surrogate in all parameters (in words): superior performance to semaglutide surrogate
[1]; DIO mice, 1.0 nmol/kg group, baseline Day 0 (30-day study), mean ± SEM
  Absolute BW Day 0: 70.0 ± 1.9 grams
[1]; [8]
  Absolute BW Day 31: 50.9 ± 2.2 grams
  Change in BW Day 31: −23.9 ± 2.6%
[1]; DIO mice, 1.0 nmol/kg s.c. once daily, 30 days, mean ± SEM, n = 2
  Cumulative food intake Day 31: 60.4 ± 4.5 grams
[1]; DIO mice, 3.0 nmol/kg group, baseline Day 0 (10-day study), mean ± SEM, n = 8
  Absolute BW Day 0: 63.8 ± 0.8 grams
[1]; DIO mice, 3.0 nmol/kg group, baseline Day 0 (30-day study), mean ± SEM
  Absolute BW Day 0: 65.8 ± 1.4 grams
[1]; DIO mice, 3.0 nmol/kg s.c. once daily, 10 days, mean ± SEM, n = 2
  Cumulative food intake Day 10: 8.3 ± 1.0 grams
[1]; [9]
  Absolute BW Day 10: 51.3 ± 0.9 grams
  Change in BW Day 10: −19.6 ± 0.7%
[1]; [10]
  Absolute BW Day 31: 40.0 ± 2.4 grams
  Change in BW Day 31: −39.1 ± 3.8%
[1]; DIO mice, 3.0 nmol/kg s.c. once daily, 30 days, mean ± SEM, n = 2
  Cumulative food intake Day 31: 46.4 ± 6.6 grams
[1]; DIO mice, 0.3, 1.0 or 3.0 nmol/kg s.c. daily for 30 days
  Response on food intake, body weight and glucose tolerance (in words): dose-dependent response
[2]; 0.3 nmol/kg s.c. once daily
  iAUC, IPGTT Day 31: 14979 ± 3423 mg·min/dL
[2]; 1.0 nmol/kg s.c. once daily
  iAUC, IPGTT Day 31: 7714 ± 1722 mg·min/dL
[2]; 3.0 nmol/kg s.c. once daily
  iAUC, IPGTT Day 31: 4073 ± 1764 mg·min/dL
Human glucagon receptor
  EC50: > 10000 pM
Mouse GLP-1 receptor
  EC50: 2.5 pM

B1: Compound #6 (peptide)
peptide: Y[Aib]EGTFTSDYSIYLDKQAA[Aib]K([γGlu-γGlu-γGlu-C18 diacid])FVNWLLAGGPSSGAPPPS-NH2
modifications: N-terminus assumed
SMILES: CC[C@H](C)[C@H](NC(=O)[C@H](CO)NC(=O)[C@H](Cc1ccc(O)cc1)NC(=O)[C@H](CC(=O)O)NC(=O)[C@H](CO)NC(=O)[C@@H](NC(=O)[C@H](Cc1ccccc1)NC(=O)[C@@H](NC(=O)CNC(=O)[C@H](CCC(=O)O)NC(=O)C(C)(C)NC(=O)[C@@H](N)Cc1ccc(O)cc1)[C@@H](C)O)[C@@H](C)O)C(=O)N[C@@H](Cc1ccc(O)cc1)C(=O)N[C@@H](CC(C)C)C(=O)N[C@@H](CC(=O)O)C(=O)N[C@@H](CCCCN)C(=O)N[C@@H](CCC(N)=O)C(=O)N[C@@H](C)C(=O)N[C@@H](C)C(=O)NC(C)(C)C(=O)N[C@@H](CCCCNC(=O)CC[C@H](NC(=O)CC[C@H](NC(=O)CC[C@H](NC(=O)CCCCCCCCCCCCCCCCC(=O)O)C(=O)O)C(=O)O)C(=O)O)C(=O)N[C@@H](Cc1ccccc1)C(=O)N[C@H](C(=O)N[C@@H](CC(N)=O)C(=O)N[C@@H](Cc1c[nH]c2ccccc12)C(=O)N[C@@H](CC(C)C)C(=O)N[C@@H](CC(C)C)C(=O)N[C@@H](C)C(=O)NCC(=O)NCC(=O)N1CCC[C@H]1C(=O)N[C@@H](CO)C(=O)N[C@@H](CO)C(=O)NCC(=O)N[C@@H](C)C(=O)N1CCC[C@H]1C(=O)N1CCC[C@H]1C(=O)N1CCC[C@H]1C(=O)N[C@@H](CO)C(N)=O)C(C)C
[3]
  hGLP-1R, CRE Luc 0% HSA EC50: 5.9 pM
  hGLP-1R, CRE Luc 1% HSA EC50: 244 pM
[4]
  hGIPR, CRE Luc 0% HSA EC50: 8.1 pM
  hGIPR, CRE Luc 1% HSA EC50: 101 pM
[5]
  mGLP-1R, CRE Luc EC50: 2.3 pM
[6]
  mGIPR, CRE Luc EC50: 1270 pM
